Data published in ChEMBL document CHEMBL1201862, “PubChem BioAssay data set” (2004).
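Tested at 5 concentrations; 48 h exposure; 96-well plates; endpoints linearly interpolated, else capped at highest concentration. The concentration for 50% growth inhibition is given as GI50.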 Active and inactive are the calls of the source. Rule as the data show it: active = GI50 up to about 1.1 µM and inactive = higher.

Tests used:
Test in all cases: NCI-60 cell line screen, 48 h
MOLT-4 = test system: MOLT-4
OVCAR-8 = test system: OVCAR-8
K562 = test system: K562
OVCAR-5 = test system: OVCAR-5
RPMI-8226 = test system: RPMI-8226
NCI-H460 = test system: NCI-H460
A549 = test system: A549
U-251 = test system: U-251
CCRF-CEM = test system: CCRF-CEM
A498 = test system: A498
SNB-19 = test system: SNB-19
LOX IMVI = test system: LOX IMVI
MDA-N = test system: MDA-N
Malme-3M = test system: Malme-3M
CAKI-1 = test system: CAKI-1
UO-31 = test system: UO-31
ACHN = test system: ACHN
NCI-H522 = test system: NCI-H522
HOP-92 = test system: HOP-92
DU-145 = test system: DU-145
NCI-H23 = test system: NCI-H23
HCC 2998 = test system: HCC 2998
SNB-75 = test system: SNB-75
UACC-257 = test system: UACC-257
HOP-62 = test system: HOP-62
NCI/ADR-RES = test system: NCI/ADR-RES
Hs-578T = test system: Hs-578T
SF-539 = test system: SF-539
OVCAR-3 = test system: OVCAR-3
NCI-H226 = test system: NCI-H226
KM12 = test system: KM12
COLO 205 = test system: COLO 205
SR = test system: SR
SK-MEL-28 = test system: SK-MEL-28
IGROV-1 = test system: IGROV-1
EKVX = test system: EKVX
MDA-MB-435 = test system: MDA-MB-435
SF-295 = test system: SF-295
MCF7 = test system: MCF7
HCT-116 = test system: HCT-116
SF-268 = test system: SF-268
786-0 = test system: 786-0
OVCAR-4 = test system: OVCAR-4
RXF 393 = test system: RXF 393
SW-620 = test system: SW-620
SN12C = test system: SN12C
HCT-15 = test system: HCT-15
SK-MEL-5 = test system: SK-MEL-5
HL-60 = test system: HL-60
PC-3 = test system: PC-3
TK-10 = test system: TK-10
HT-29 = test system: HT-29
MDA-MB-231 = test system: MDA-MB-231
UACC-62 = test system: UACC-62
T47D = test system: T47D
SK-OV-3 = test system: SK-OV-3
M14 = test system: M14
SK-MEL-2 = test system: SK-MEL-2

Measured: GI50

O=C(Nc1nc(C23CC4CC(CC(C4)C2)C3)cs1)c1cc2cc(Cl)ccc2oc1=O
inactive: MOLT-4 > 100 µM | OVCAR-8 > 100 µM | K562 > 100 µM | OVCAR-5 > 100 µM | RPMI-8226 > 100 µM | NCI-H460 > 100 µM | A549 > 100 µM | U-251 > 100 µM | CCRF-CEM > 100 µM | A498 > 100 µM | SNB-19 > 100 µM | LOX IMVI > 100 µM | MDA-N > 100 µM | Malme-3M > 100 µM | CAKI-1 > 100 µM | UO-31 > 100 µM | ACHN > 100 µM | NCI-H522 > 100 µM | HOP-92 > 100 µM | DU-145 > 100 µM | NCI-H23 > 100 µM | HCC 2998 > 100 µM | SNB-75 > 100 µM | UACC-257 > 100 µM | HOP-62 > 100 µM | NCI/ADR-RES > 100 µM | Hs-578T 71.1 µM | SF-539 > 100 µM | OVCAR-3 > 100 µM | NCI-H226 > 100 µM | KM12 > 100 µM | COLO 205 > 100 µM | SR > 100 µM | SK-MEL-28 > 100 µM | IGROV-1 > 100 µM | EKVX > 100 µM | MDA-MB-435 > 100 µM | SF-295 > 100 µM | MCF7 > 100 µM | HCT-116 > 100 µM | SF-268 > 10 µM | 786-0 > 100 µM | OVCAR-4 > 100 µM | RXF 393 > 100 µM | SW-620 > 100 µM | SN12C > 100 µM | SK-MEL-5 > 100 µM | HL-60 > 100 µM | PC-3 > 100 µM | TK-10 > 100 µM | HT-29 > 100 µM | MDA-MB-231 > 100 µM
> 100 µM: HCT-15

CN(C)CCSC1=Nc2ccc(Cl)cc2C(c2ccccc2Cl)=NC1
inactive: MOLT-4 33.3 µM | K562 20.5 µM | SNB-75 18.2 µM | Hs-578T 18.6 µM | MDA-MB-435 13.8 µM | HL-60 19.3 µM

O=C1C=CC2(C=C1)CCNC1=C2C(=O)c2[nH]cnc2C1=O
inactive: SNB-19 13.9 µM | Malme-3M 2.26 µM | IGROV-1 15.2 µM

N#Cc1ccccc1C#C/C=C\C#Cc1ccccn1
inactive: OVCAR-8 13.1 µM | OVCAR-5 28.6 µM | NCI-H460 20.4 µM | A549 19.8 µM | U-251 18.5 µM | CCRF-CEM 36.5 µM | UACC-62 15.3 µM | SNB-19 25.9 µM | Malme-3M 19.3 µM | CAKI-1 21.8 µM | UO-31 15.3 µM | ACHN 29.6 µM | HOP-92 26.9 µM | DU-145 28.6 µM | NCI-H23 12.3 µM | HCC 2998 14.5 µM | SNB-75 24.8 µM | UACC-257 13.7 µM | T47D 20.8 µM | HOP-62 19 µM | NCI/ADR-RES 16.6 µM | Hs-578T 16.4 µM | SF-539 20.5 µM | OVCAR-3 4.27 µM | SK-OV-3 25.1 µM | COLO 205 27.4 µM | SR 4.12 µM | SK-MEL-28 17.5 µM | IGROV-1 17 µM | EKVX 22.9 µM | M14 15.5 µM | SF-295 20 µM | MCF7 14.4 µM | HCT-116 12 µM | SF-268 16.1 µM | 786-0 20.3 µM | OVCAR-4 75.9 µM | RXF 393 14.1 µM | SW-620 12.6 µM | SN12C 20.4 µM | SK-MEL-5 2.99 µM | HL-60 6.71 µM | PC-3 13.7 µM | TK-10 30.9 µM | SK-MEL-2 15 µM | HT-29 18 µM
18.8 µM: HCT-15
